Test results as given in patent US6716588B2, “System for cell-based screening” (Cellomics, Inc., priority 1999, dated 2004).

Assays:
PC-3 cells = test: Cell spreading assay, PC-3 cells; type: cell-based, human; details: for ability of cells to spread (percentage of cells with Cyto minus NucArea above threshold): PC-3 on type I collagen, 3 hours
Protocol: (§1) Compounds that interfere with metastasis of prostate carcinoma cells were screened as follows. PC3 human prostate carcinoma cells (ATCC # CRL 1435) were cultured in media with appropriate stimulants and passaged to collagen coated 96 well plates. Similar experiments were also conducted with MDA-MB231, a breast carcinoma cell line (ATCC # HTB-26), A549 human lung carcinoma cell line (ATCC # CCL 185), and primary HMVEC-d human skin microvessel endothelial cells (Clonetics Walkersville, Md.
(§2) Conditions in which cell spreading could be augmented or diminished were tested in various ways, including plating the cells on collagen coated (various concentrations) or collagen free substrates, varying the time of cell spreading prior to analysis, and plating cells in the presence of chemical modulators. After two hours, cells were fixed and stained with ALEXA™ 488 phalloidin (Molecular Probes) and Hoechst 33342 as per the protocol for cellular hypertrophy. The size of cells under these various conditions, as measured by cytoplasmic staining, was distinguished from background levels. The number of cells per field was determined by measuring the number of nuclei stained with the Hoechst DNA dye. The area per cell was found by dividing the cytoplasmic area (phalloidin image) by the cell number (Hoechst image).

A549 cells [1] = test: Cell spreading assay, A549 cells; type: cell-based, human; details: for inhibition of cell spreading: 10 μM; for stimulation of spreading by matrix protein / completeness of cell spreading on matrix protein: A549 cells plated on matrix protein
Protocol: as §1, §2
(§3) To illustrate how cell spreading is a unique functional event that can be distinguished from attachment and motility by drug effects, we performed the following experiments. A549 cancer cells were allowed to spread on a collagen I coated substrate for 3 hours, and then were fixed and stained with rhodamine phalloidin. The number of cells that spread beyond a selectable threshold area was measured as a function of increasing concentrations of cytochalasin D. While cells normally spread to a size much larger than the nucleus in this time interval, cytochalasin D maintained cells in a tight rounded morphology not much larger than the nucleus. The movement of A549 cells was measured at 18 hours after plating. At a concentration of 0.5 μM, cytochalasin D prevented spreading of 80% of cells but permitted movement of 70% of cells. Cytochalasin had no effect on adhesion to the substrate as measured by the number of cells that remain attached after a 3 hour incubation.
(§4) The spreading of cells is a function of the ligands and cell receptors that are employed, and plating cells on different immobilized ligands will selectively bind to matched cell surface receptors. A549 cells were plated on various matrix proteins and allowed to spread for 3 and for 5 hours. […] Thus ligand-dependent differences in the kinetics of cell spreading can be measured. In addition, strong differences in the activation of spreading were seen on different matrices. […] In contrast to spreading, cell motility presented a very different biological profile of these matrix proteins. […] In further experiments, cells were allowed to spread in the presence of various kinase inhibitors and the effect on cell spreading was determined.

A549 cells [2] = test: Cell movement (motility) of A549 cells; type: cell-based, human; details: for inhibition of cell movement (motility): 10 μM; for stimulation of movement by matrix protein: A549 cells plated on matrix protein
Protocol: as §3, §4

SNB-19 cells = test: High-content screen of drug-induced apoptosis, SNB-19 cells; type: cell-based
Protocol: Cell preparation. The cells chosen for this study were mouse connective tissue fibroblasts (L-929; ATCC CCL-1) and a highly invasive glioblastoma cell line (SNB-19; ATCC CRL-2219) (Welch et al., In Vitro Cell. Dev. Biol. 31:610, 1995). The day before treatment with an apoptosis inducing drug, 3500 cells were placed into each well of a 96-well plate and incubated overnight at 37° C. in a humidified 5% CO2 atmosphere. The following day, the culture medium was removed from each well and replaced with fresh medium containing various concentrations of paclitaxel (0-50 μM) from a 20 mM stock made in DMSO. The maximal concentration of DMSO used in these experiments was 0.25%. The cells were then incubated for 26 h as above. At the end of the paclitaxel treatment period, each well received fresh medium containing 750 nM MitoTracker Red (Molecular Probes; Eugene, Oreg.) and 3 μg/ml Hoechst 33342 DNA-binding dye (Molecular Probes) and was incubated as above for 20 min. […] The fluorescence signals from plates stored this way were stable for at least two weeks after preparation. As in the nuclear translocation assay, fluorescence reagents can be designed to convert this assay into a live cell high-content screen.
Image acquisition and analysis on the ArrayScan System. The fluorescence intensity of intracellular MitoTracker Red, Hoechst 33342, and Bodipy FL phallacidin was measured with the cell screening system as described supra. […]
Calculations and output. A total of 50-250 cells were measured per image field. For each field of cells, the following calculations were performed: (1) The average nuclear area (μm^2) was calculated by dividing the total nuclear area in a field by the number of nuclei detected. (2) The average nuclear perimeter (μm) was calculated by dividing the sum of the perimeters of all nuclei in a field by the number of nuclei detected in that field. […] (3) The average nuclear brightness was calculated by dividing the integrated intensity of the entire field of nuclei by the number of nuclei in that field. […]

L-929 cells = test: High-content screen of drug-induced apoptosis, L-929 cells; type: cell-based, mouse
Protocol: Cell preparation. The cells chosen for this study were mouse connective tissue fibroblasts (L-929; ATCC CCL-1) and a highly invasive glioblastoma cell line (SNB-19; ATCC CRL-2219) (Welch et al., In Vitro Cell. Dev. Biol. 31:610, 1995). The day before treatment with an apoptosis inducing drug, 3500 cells were placed into each well of a 96-well plate and incubated overnight at 37° C. in a humidified 5% CO2 atmosphere. The following day, the culture medium was removed from each well and replaced with fresh medium containing various concentrations of paclitaxel (0-50 μM) from a 20 mM stock made in DMSO. The maximal concentration of DMSO used in these experiments was 0.25%. The cells were then incubated for 26 h as above. At the end of the paclitaxel treatment period, each well received fresh medium containing 750 nM MitoTracker Red (Molecular Probes; Eugene, Oreg.) and 3 μg/ml Hoechst 33342 DNA-binding dye (Molecular Probes) and was incubated as above for 20 min. Each well on the plate was then washed with HBSS and fixed with 3.7% formaldehyde in HBSS for 15 min at room temperature. The formaldehyde was washed out with HBSS and the cells were permeabilized for 90 s with 0.5% (v/v) Triton X-100, washed with HBSS, incubated with 2 U ml^−1 Bodipy FL phallacidin (Molecular Probes) for 30 min, and washed with HBSS. The wells on the plate were then filled with 200 μl HBSS, sealed, and the plate stored at 4° C. if necessary. The fluorescence signals from plates stored this way were stable for at least two weeks after preparation. As in the nuclear translocation assay, fluorescence reagents can be designed to convert this assay into a live cell high-content screen.
Image acquisition and analysis on the ArrayScan System. The fluorescence intensity of intracellular MitoTracker Red, Hoechst 33342, and Bodipy FL phallacidin was measured with the cell screening system as described supra. Morphometric data from each pair of images obtained from each well was also obtained to detect each object in the image field (e.g., cells and nuclei), and to calculate its size, shape, and integrated intensity.
Calculations and output. A total of 50-250 cells were measured per image field. For each field of cells, the following calculations were performed: (1) The average nuclear area (μm^2) was calculated by dividing the total nuclear area in a field by the number of nuclei detected. (2) The average nuclear perimeter (μm) was calculated by dividing the sum of the perimeters of all nuclei in a field by the number of nuclei detected in that field. Highly convoluted apoptotic nuclei had the largest nuclear perimeter values. (3) The average nuclear brightness was calculated by dividing the integrated intensity of the entire field of nuclei by the number of nuclei in that field. An increase in nuclear brightness was correlated with increased DNA content. (4) The average cellular brightness was calculated by dividing the integrated intensity of an entire field of cells stained with MitoTracker dye by the number of nuclei in that field. Because the amount of MitoTracker dye that accumulates within the mitochondria is proportional to the mitochondrial potential, an increase in the average cell brightness is consistent with an increase in mitochondrial potential. (5) The average cellular brightness was also calculated by dividing the integrated intensity of an entire field of cells stained with Bodipy FL phallacidin dye by the number of nuclei in that field. […]

[3] = system: NF-KB transcription factor; test: Cytoplasm to nucleus translocation screen of NF-KB (NucCyt Difference); type: cell-based, human; details: titrated in the presence of IL-1α
Protocol: The distribution of the transcription factor is determined by labeling the nuclei with a DNA specific fluorophore like […] and the transcription factor with a specific fluorescent antibody. After autofocusing on the Hoechst labeled nuclei, an image of the nuclei is acquired in the cell-based screening system and used to create a mask by one of several optional thresholding methods, as described supra. The morphological descriptors of the regions defined by the mask are compared with the user defined parameters and valid nuclear masks are identified and used with the following method to extract transcription factor distributions. Each valid nuclear mask is eroded to define a slightly smaller nuclear region. The original nuclear mask is then dilated in two steps to define a ring shaped region around the nucleus, which represents a cytoplasmic region. The average antibody fluorescence in each of these two regions is determined, and the difference between these averages is defined as the NucCyt Difference. […] Using these two sampling regions, data on nuclear translocation can be automatically analyzed by the cell-based screening system on a cell by cell basis. […]

For C[S+](C)[O-] [DMSO], the “ability of cells to spread (percentage of cells with Cyto minus NucArea above threshold)” value (PC-3 cells; DMSO 2.5%) was “significantly reduced”, the “ability of cells to spread (percentage of cells with Cyto minus NucArea above threshold)” value (PC-3 cells; DMSO 5%) was “significantly reduced” and the “ability of cells to spread (percentage of cells with Cyto minus NucArea above threshold)” value (PC-3 cells; DMSO at or below 1%) was “no effect”.
O=C(O)CN(CCN(CC(=O)O)CC(=O)O)CC(=O)O [EDTA] was tested, and the cell adherence (PC-3 cells; PC-3 cells, 50 mM) was “inhibited cell adherence” and the cell spreading (PC-3 cells; PC-3 cells, 50 mM) was “inhibited cell spreading”.
With CN([C@@H](Cc1ccc(OS(=O)(=O)c2cccc3cnccc23)cc1)C(=O)N1CCN(c2ccccc2)CC1)S(=O)(=O)c1cccc2cnccc12 [KN-62] the “inhibition of cell spreading” value (A549 cells [1]) was “ineffective” and the “inhibition of cell movement (motility)” value (A549 cells [2]) was “ineffective”.
For C=C1[C@@H](C)[C@H]2[C@H](Cc3ccccc3)NC(=O)[C@]23[C@H](OC(C)=O)/C=C/[C@@](C)(O)C(=O)[C@@H](C)C/C=C/[C@H]3[C@@H]1O [cytochalasin D], the “binding of cells to the substrate” value (PC-3 cells; cell line not given) was “did not affect binding of cells to the substrate”, the “spreading on various substrates” value (PC-3 cells; cell line not given) was “prevented their spreading” and the “cells prevented from spreading” value (A549 cells [1]; 0.5 μM, collagen I coated substrate, 3 hours) was 80%. The “adhesion to the substrate (number of cells that remain attached)” value (A549 cells [1]; 3 hour incubation) was “no effect” and the “cells permitted to move” value (A549 cells [2]; 0.5 μM, movement measured at 18 hours after plating) was 70%.
In the case of O=c1c(-c2ccc(O)cc2)coc2cc(O)cc(O)c12 [genistein], the “inhibition of cell spreading” value (A549 cells [1]) is reported as “ineffective” and the “inhibition of cell movement (motility)” value (A549 cells [2]) is reported as “ineffective”.
CC(=O)O[C@H]1C(=O)[C@@]2(C)[C@H]([C@H](OC(=O)c3ccccc3)[C@]3(O)C[C@H](OC(=O)[C@H](O)[C@@H](NC(=O)c4ccccc4)c4ccccc4)C(C)=C1C3(C)C)[C@]1(OC(C)=O)CO[C@@H]1C[C@@H]2O [paclitaxel] was tested, and the mitochondrial potential (SNB-19 cells; 10 nM paclitaxel, 26 h) was “minimal”, the “concentration at which area, brightness, fragmentation of the nucleus and actin polymerization reached a maximum value” (SNB-19 cells; 26 h) was 10 nM and the “all the parameters measured at increasing concentrations” value (SNB-19 cells; >10 nM paclitaxel) was “approached control levels”. The “concentration of maximal response in many parameters” value (L-929 cells; L-929 cells, 26 h) was 5 µM, the mitochondrial potential (L-929 cells; L-929 cells, any of the concentrations tested (0-50 μM)) was “did not show a sharp decrease” and the “sensitivity to low concentrations compared with SNB-19 cells” value (L-929 cells; L-929 cells, each parameter measured) was “less sensitive”. For the same molecule, the nuclear morphology (L-929 cells; L-929 cells, increasing amounts of paclitaxel) was “caused nuclei to enlarge and fragment” and the “dose of maximal response, L-929 relative to SNB-19 cells” value (L-929 cells; L-929 vs SNB-19) was 500 fold.
With Calphostin C the “inhibition of cell spreading” value (A549 cells [1]) was “equally effective at inhibiting cell spreading and movement” and the “inhibition of cell movement (motility)” value (A549 cells [2]) was “equally effective at inhibiting cell spreading and movement”.
For “IL-1RA: an antagonist to the receptor for IL-1”, the “inhibition of translocation induced by IL-1α” value [3] was “progressively inhibiting the translocation”.
With “collagen I: matrix protein used as substrate coating” the “time at which cell spreading was achieved” value (PC-3 cells; PC-3 cells on a defined collagen I matrix) was 2 to 3 h, the “stimulation of spreading by matrix protein” value (“stimulation of spreading” below) (A549 cells [1]) was “maximally stimulated both movement and spreading” and the “completeness of cell spreading on matrix protein” value (“completeness of cell spreading” below) (A549 cells [1]; 3 hours) was “complete by 3 hours”. For the same molecule, the “stimulation of movement by matrix protein” value (from here on “stimulation of movement”) (A549 cells [2]) was “maximally stimulated both movement and spreading”.
For fibronectin, the “stimulation of spreading” value (A549 cells [1]) was “maximally stimulated spreading”, the “completeness of cell spreading” value (A549 cells [1]; 3 hours) was “incomplete” and the “stimulation of movement” value (A549 cells [2]) was “minimally stimulated movement”.
In the case of laminin, the “stimulation of spreading” value (A549 cells [1]) is reported as “minimally stimulating spreading”, the “completeness of cell spreading” value (A549 cells [1]; 3 hours) is reported as “complete by 3 hours” and the “stimulation of movement” value (A549 cells [2]) is reported as “maximally stimulated movement”.
